According to patent US12655141B2, “Inhibitors of notch signaling pathway and use thereof in treatment of cancers” (Cellestia Biotech AG, priority 2019, dated 2026):

Experiments:
[1] = tested on: NOTCH positive/driven human T cell acute lymphoblastic leukemia cell line RPMI 8402; assay: Alamar blue anti-proliferative assay; assay type: cell-based; details: for IC50: Homo sapiens, RPMI 8402, RPMI8402, 72 hours, concentration range 0.01-10 μM
Protocol: (§1) Alamarblue® and PrestoBlue proliferation assays were performed to determine the growth kinetics of Notch inhibitor treated cells. Alamar Blue® and PrestoBlue consists of a cell permeable substrate resazurin. In metabolically active and proliferating cells, resazurin is converted to resorufin due to an intrinsic reducing power of live cells and produces a red fluorescence. Therefore production of resorufin serves as an indicator of the viability of the cell population.
(§2) Proliferation assays were performed by seeding 5000 cells/well in a 96 well plate. Cells were treated with DMSO or compounds for 72 hours using concentration ranges of 0.01-10 μM. Each concentration was tested in 4 replicates. To determine the growth kinetics, 10 μl of Alamar Blue® or PrestoBlue (Invitrogen) was added to each well and incubated for 4 hours. Readout was taken using Tecan F500 (Tecan) multiplate reader or Varioskan LUX (ThermoFisher) multiplate reader.
(§3) In order to determine anti-cancer potency of compounds compared to 6-(4-tert-butylphenoxy)pyridin-3-amine (described in WO2013/093885), NOTCH positive/driven human T cell acute lymphoblastic leukemia cell line RPMI 8402 was treated with selected compounds.

[2] = tested on: NOTCH positive/driven human T cell acute lymphoblastic leukemia cell line RPMI 8402; assay: PrestoBlue anti-proliferative assay; assay type: cell-based; details: for IC50: Homo sapiens, RPMI 8402, RPMI8402, 72 hours, concentration range 0.03-100 μM; for fold change compared to 6-(4-tert-butylphenoxy)pyridin-3-amine (anti-proliferative IC50): RPMI8402, 72 hours
Protocol: as §1
as §2, with “Cells were treated with DMSO or compounds for 72 hours using concentration ranges of 0.01-10 μM.” left out
as §3

[3] = tested on: cMYC; assay: Jess western blot of RPMI8402 protein lysates: cMYC; assay type: cell-based, human; details: RPMI8402, 1 μM, 24 hours, 37° C
Protocol: (§4) One million human NOTCH positive T-ALL cell line RPMI8402 were treated with NOTCH targeting compounds at 1 μM concentration for 24 hours. Following treatment cells were harvested and washed with 1×PBS. Total RNA and total protein lysates were extracted as described below.
(§5) Cells were lysed in RIPA buffer (50 mM Tris·Cl, pH 7.5, 150 mM NaCl, 1% nonidet P-40, 0.5% sodium deoxycholate and 0.1% SDS) for 30 minutes at 4° C. Lysed cells were centrifuged to remove the debris at 14000 rpm at 4° C. Supernatant was transferred to a new eppendorf tube. The protein concentration was determined by Bradford assay using spectrophotometer (Ultrospec 3000 pro).
(§6) Later on western blotting was carried out using Jess (ProteinSimple, biotechne). Samples containing 0.8 μg protein was denatured in loading buffer containing DTT by heating at 95° C. for 5 minutes. Samples were run on 12-230 kDa gel matrix, with incubation time for primary and secondary antibodies of 1 hour and 30 minutes, respectively. Data were analysed using Compass for SW (ProteinSimple, biotechne) software.
(§7) Total protein lysates were analysed by Jess western blot analysis using N1-ICD (cleaved and active NOTCH1 Intracellular Domain), cMYC and GAPDH specific antibodies.

[4] = tested on: N1-ICD (cleaved and active NOTCH1 Intracellular Domain); assay: Jess western blot of RPMI8402 protein lysates: N1-ICD; assay type: cell-based, human; details: RPMI8402, 1 μM, 24 hours, 37° C
Protocol: as §4, §5, §6, §7

[5] = tested on: cMYC; assay: Western blot of RPMI8402 protein lysates: cMYC; assay type: cell-based, human; details: NOTCH positive leukemic cells, 1 μM, 24 hours, FIGS. 2 and 3
Protocol: as §4, §5
(§8) Initially for western blotting, 40 μg of protein were denatured in 1×SDS gel loading buffer (100 mM Tris·Cl, pH 6.8, 200 mM DTT, 4% SDS, 0.2% bromophenol, 20% glycerol) by heating at 99° C. for 5 minutes. Denatured protein samples were stored on ice until loading on to the acrylamide gel. The samples were run on 8% or 10% acrylamide gel in Tris-glycine electrophoresis buffer (25 mM Tris, 250 mM glycine, 0.1% SDS). Following separation on the acrylamide gel, protein samples were transferred on to PVDF membrane (PEQ lab, catalog number 39-3010) using transfer buffer (39 mM glycine, 48 mM Tris base, 0.037% SDS and 20% methanol).
(§9) For immunoblotting, membranes were blocked with 5% milk and incubated overnight with primary antibodies at 4° C. Membrane were washed with 1×TBST (1×TBS+0.5 tween 20) for 5 minutes (3 times) and incubated with HRP-conjugated secondary antibodies for one hour at room temperature. Signal was detected with Super Signal West chemiluminescent substrate (Thermo Scientific, catalog number 34077).
(§10) Total protein lysates were analysed by western blot analysis using N1-ICD (cleaved and active NOTCH1 Intracellular Domain), cMYC and ACTIN specific antibodies.

[6] = tested on: N1-ICD (cleaved and active NOTCH1 Intracellular Domain); assay: Western blot of RPMI8402 protein lysates: N1-ICD; assay type: cell-based, human; details: NOTCH positive leukemic cells, 1 μM, 24 hours, FIGS. 2 and 3
Protocol: as §4, §5, §8, §9, §10

[7] = tested on: NOTCH pathway; assay: Western blot, downregulation of NOTCH pathway (N1-ICD and cMYC), FIG. 2 and 3; assay type: cell-based, human; details: RPMI8402, 1 μM, 24 hours
Protocol: NOTCH positive human leukemic RPMI8402 cells were treated with 1 μM of 6-(4-tert-butylphenoxy)pyridin-3-amine and 6-([1,1′-Biphenyl]-4-yloxy)-N-methylpyridin-3-amine for 24 hours. Following treatment, total protein lysates were extracted and protein expression analysed by western blot.
NOTCH positive human leukemic RPMI8402 cells were treated with 1 μM of 6-(4-tert-butylphenoxy)pyridin-3-amine and 6-((4′-Fluoro-[1,1′-biphenyl]-4-yl)oxy)pyridin-3-amine, 6-([1,1′-Biphenyl]-4-yloxy)-4-methylpyridin-3-amine, 6-([1,1′-Biphenyl]-4-yloxy)-2-methylpyridin-3-amine and N-Methyl-6-((6-phenylpyridin-3-yl)oxy)pyridin-3-amine for 24 hours. Following treatment, total protein lysates were extracted and protein expression analysed by western blot.
as §4, §5, §8, §9

IC50 [1]	IC50 [2]	fold change compared to 6-(4-tert-butylphenoxy)pyridin-3-amine (anti-proliferative IC50) [2]	SMILES	Percentage improvement of compounds over 6-(4-tert-Butylphenoxy)pyridin-3-amine to downregulate NOTCH target genes (protein expression): cMYC [3]	Percentage improvement of compounds over 6-(4-tert-Butylphenoxy)pyridin-3-amine to downregulate NOTCH target genes (protein expression): N1-ICD [4]	further results
0.74 µM	0.74 µM	(1X) x	CC(C)(C)c1ccc(Oc2ccc(N)cn2)cc1 [6-(4-tert-butylphenoxy)pyridin-3-amine, reference compound]	100%	100%	fold change compared to 6-(4-tert-butylphenoxy)pyridin-3-amine (anti-proliferative IC50) ([1]; RPMI8402, 72 hours): (1X) x
0.11 µM			CNc1ccc(Oc2ccc(-c3ccccc3)cc2)nc1 [Example 2, 6-([1,1′-Biphenyl]-4-yloxy)-N-methylpyridin-3-amine]			downregulation of cMYC compared to 6-(4-tert-butylphenoxy)pyridin-3-amine [5]: stronger downregulation; downregulation of N1-ICD compared to 6-(4-tert-butylphenoxy)pyridin-3-amine [6]: stronger downregulation; potency in downregulating NOTCH pathway compared with 6-(4-tert-butylphenoxy)pyridin-3-amine [7]: enhanced potency
0.7 µM			CNc1ccc(Oc2ccc(-c3ccccc3)cc2)c(F)c1 [Example 6, 4-([1,1′-Biphenyl]-4-yloxy)-3-fluoro-N-methylaniline]			
0.17 µM			Nc1ccc(Oc2ccc(-c3ccccc3)cc2)cc1 [Example 7, 4-([1,1′-Biphenyl]-4-yloxy)aniline]			
0.11 µM			Cc1nc(Oc2ccc(-c3ccccc3)cc2)ccc1N [Example 8, 6-([1,1′-Biphenyl]-4-yloxy)-2-methylpyridin-3-amine]			downregulation of cMYC compared to 6-(4-tert-butylphenoxy)pyridin-3-amine [5]: stronger downregulation; downregulation of N1-ICD compared to 6-(4-tert-butylphenoxy)pyridin-3-amine [6]: stronger downregulation; potency in downregulating NOTCH pathway compared with 6-(4-tert-butylphenoxy)pyridin-3-amine [7]: enhanced potency
0.92 µM			Nc1ccc(OCCc2cc(Oc3ccc(N)cn3)ccc2-c2ccccc2)cc1 [Example 22, 6-((2-(2-(4-Aminophenoxy)ethyl)-[1,1′-biphenyl]-4-yl)oxy)pyridin-3-amine]			
	0.2 µM	(3.7x)	CNc1ccc(Oc2ccc(-c3ccc(F)cc3)cc2)nc1 [Example 27, 6-((4′-Fluoro-[1,1′-biphenyl]-4-yl)oxy)-N-methylpyridin-3-amine]	183%	197%	
	< 0.03 µM	(>24x)	Cc1nc(Oc2ccc(-c3ccc(F)cc3)cc2)ccc1N [Example 28, 6-((4′-Fluoro-[1,1′-biphenyl]-4-yl)oxy)-2-methylpyridin-3-amine]	170%	173%	
			Cc1cc(Oc2ccc(-c3ccc(F)cc3)cc2)ncc1N [Example 29, 6-((4′-Fluoro-[1,1′-biphenyl]-4-yl)oxy)-4-methylpyridin-3-amine]	183%	192%	
	0.45 µM	(1.6x)	Cc1nc(Oc2ccc(-c3ccccc3)nc2)ccc1N [Example 30, 2-Methyl-6-((6-phenylpyridin-3-yl)oxy)pyridin-3-amine]	159%	159%	
			Cc1cc(Oc2ccc(-c3ccccc3)nc2)ncc1N [Example 31, 4-Methyl-6-((6-phenylpyridin-3-yl)oxy)pyridin-3-amine]	108%	110%	
	0.5 µM	(1.5x)	Cc1nc(Oc2ccc(-c3cncs3)cc2)ccc1N [Example 32, 2-Methyl-6-(4-(thiazol-5-yl)phenoxy)pyridin-3-amine]	133%	136%	
	< 0.03 µM	(>24x)	Cc1cc(Oc2ccc(-c3cncs3)cc2)ncc1N [Example 33, 4-Methyl-6-(4-(thiazol-5-yl)phenoxy)pyridin-3-amine]	130%	132%	
	0.15 µM	(4.9x)	CNc1ccc(Oc2ccc(-c3cncs3)cc2)nc1 [Example 34, N-Methyl-6-(4-(thiazol-5-yl)phenoxy)pyridin-3-amine]	115%	114%	
	< 0.03 µM	(>24x)	Cc1nc(Oc2ccc(-c3nccs3)cc2)ccc1N [Example 35, 2-Methyl-6-(4-(thiazol-2-yl)phenoxy)pyridin-3-amine]	130%	132%	
	0.05 µM	(14.8x)	Cc1cc(Oc2ccc(-c3nccs3)cc2)ncc1N [Example 36, 4-Methyl-6-(4-(thiazol-2-yl)phenoxy)pyridin-3-amine]			
			Cc1ccccc1-c1ccc(Oc2ccc(N)c(C)n2)cc1C [Example 37, 6-((2,2′-Dimethyl-[1,1′-biphenyl]-4-yl)oxy)-2-methylpyridin-3-amine]	138%	151%	
			Nc1ccc(Cc2ccc(-c3ccc(F)cc3)cc2)cc1 [Example 59, 4-((4′-Fluoro-[1,1′-biphenyl]-4-yl)methyl)aniline]	154%	149%	
